Patent publication US6391907B1, “Indoline derivatives” (American Home Products Corporation, priority 1999, dated 2002)
pEC50, pKi: −log10 of the molar value. Where “and” joins values, the source holds several entries; their conditions need not be identical. Equal values may be shown once.

Experiments:
[1] = tested on: rat uterine decidualization; experiment: Rat decidualization assay; type: in vivo; settings: rat decidualization, antiprogestational mode, read-out: Decid. IC50 mg/kg
Description: 1. Rat Decidualization Assay
The animals are treated once daily for seven days.
Uteri are removed and trimmed of fat.
Decidual response: [(D-C)/C]×100%

[2] = biological target: T1, A-form of the human progesterone receptor (Homo sapiens, UniProt P06401); experiment: hPR binding assay (competitive radioligand binding)
T1 sequence (P06401 1-769 isoform P06401-2): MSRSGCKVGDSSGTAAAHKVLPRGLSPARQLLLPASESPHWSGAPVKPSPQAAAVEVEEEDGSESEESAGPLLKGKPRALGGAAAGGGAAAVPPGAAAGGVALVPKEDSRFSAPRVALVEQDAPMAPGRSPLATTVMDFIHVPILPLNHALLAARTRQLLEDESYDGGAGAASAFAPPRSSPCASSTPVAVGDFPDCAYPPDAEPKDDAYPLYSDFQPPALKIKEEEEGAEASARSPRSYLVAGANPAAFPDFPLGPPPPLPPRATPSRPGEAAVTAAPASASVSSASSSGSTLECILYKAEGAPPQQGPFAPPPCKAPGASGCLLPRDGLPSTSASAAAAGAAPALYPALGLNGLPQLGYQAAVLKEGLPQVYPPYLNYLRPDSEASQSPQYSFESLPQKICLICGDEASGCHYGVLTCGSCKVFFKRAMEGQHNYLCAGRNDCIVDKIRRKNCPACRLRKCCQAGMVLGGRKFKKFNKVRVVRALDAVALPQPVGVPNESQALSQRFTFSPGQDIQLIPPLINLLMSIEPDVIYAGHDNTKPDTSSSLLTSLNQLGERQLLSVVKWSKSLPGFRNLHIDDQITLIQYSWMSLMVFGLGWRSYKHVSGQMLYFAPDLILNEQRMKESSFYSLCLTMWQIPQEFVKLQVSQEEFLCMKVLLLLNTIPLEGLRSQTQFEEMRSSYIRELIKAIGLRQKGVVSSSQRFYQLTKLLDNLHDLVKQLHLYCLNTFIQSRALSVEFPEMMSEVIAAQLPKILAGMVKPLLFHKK

[3] = tested on: T47D cells; experiment: T47D cell proliferation assay (BrdU incorporation); type: cell-based; settings: half-maximal increase in BrdU incorporation, individual studies
Description: 3. T47D Cell Proliferation Assay
The objective of this assay is the determination of progestational and antiprogestational potency by using a cell proliferation assay in T47D cells. A compound's effect on DNA synthesis in T47D cells is measured.
DMEM:F12 (1:1) (GIBCO, BRL) supplemented with 10% (v/v) fetal bovine serum (not heat-inactivated), 100 U/ml penicillin, […], and 2 mM GlutaMax (GIBCO, BRL).
Minimum Essential Medium (MEM) (#51200-038GIBCO, BRL) phenol red-free supplemented with 0.5% charcoal stripped fetal bovine serum, 100 U/ml penicillin, 200 mg/ml streptomycin, and 2 mM GlutaMax (GIBCO, BRL).
Stock T47 D cells are maintained in growth medium For BrdU incorporation assay, cells are plated in 96-well plates (Falcon, Becton Dickinson Labware) at 10,000 cells/well in growth medium. […]
At the end of BrdU labeling, the medium is removed and BrdU incorporation is measured using a cell proliferation ELISA kit (#RPN 250, Amersham Life Science) according to manufacturer's instructions. […] Then 25 μl of 1 M sulfuric acid is added to each well to stop color reaction and optical density is read in a plate reader at 450 nm within 5 min.
Square root-transformed data are used for analysis of variance and nonlinear dose response curve fitting for both agonist and antagonist modes. […] EC50 or IC50 values are calculated from the retransformed values. […]

melting point | pKi [2] | pEC50 ([3]; Homo sapiens, T47D) | pEC50 [3] | Structure (SMILES) | inhibition in vivo at 10 mg/kg [1] | inhibition in vivo at 3 mg/kg ([1]; @ 3 mg/kg)
200 to 203 °C | 8.32 | – | – | Cc1cc(C#N)sc1-c1ccc2c(c1)C1(CCCCC1)C(=O)N2 [Example 36, 4-Methyl-5-(2′-oxo-2′,3′-dihydrospiro[cyclohexane-1,3′-[3H]indol]-5′-yl)-2-thiophene carbonitrile] | 50% | –
– | – | 10.72 | – | CC(=O)O[C@]1(C(C)=O)CC[C@H]2[C@@H]3C[C@H](C)C4=CC(=O)CC[C@]4(C)[C@H]3CC[C@@]21C [MPA, medroxyprogesterone acetate] | – | –

The next lines start with the compound.

Structure (SMILES) | melting point | pKi [2] | pEC50 ([3]; Homo sapiens, T47D) | pEC50 [3] | inhibition in vivo at 10 mg/kg [1] | inhibition in vivo at 3 mg/kg ([1]; @ 3 mg/kg)
O=C1Nc2ccc(-c3cc(F)cc([N+](=O)[O-])c3)cc2C12CCCCC2 [Example 32, 5-(3-Fluoro-5-nitrophenyl)spiro[cyclohexane-1,3-[3H]indol]-2(1H)-one] | 191 to 193 °C | 8.05 | – | – | 60% | –
N#Cc1cc(-c2ccc3c(c2)C2(CCCCC2)C(=O)N3)cs1 [Example 34, 4-(1,2-Dihydro-2-oxospiro[cyclohexane-1,3-[3H]indol]-5-yl)-2-thiophenecarbonitrile] | – | 7.72 | – | – | 50% | –
N#Cc1ccc(-c2ccc3c(c2)C2(CCCCC2)C(=O)N3)s1 [Example 35] | 225 to 228 °C | 7.66 | – | – | 50% | –
O=C1Nc2ccc(-c3ccc([N+](=O)[O-])[nH]3)cc2C12CCCCC2 [Example 44, 5′-(5-Nitro-1H-pyrrol-2-yl)spiro[cyclohexane-1,3′-[3H]indol]-2′(1′H)-one] | 278 °C (dec.) | 6.91 | – | – | – | 50%
C[C@H](O)C(=O)[C@@]1(C)CC[C@H]2[C@@H]3CCC4=CC(=O)CCC4=C3CC[C@@]21C [Trimegestone] | – | – | – | 10.77 and 10.85 and 10.72 | – | –
